Tested on: Blumeria graminis f. sp. hordei
Assay: Test on the controlling effect against powdery mildew of barley plant
Type: in vivo
Conditions: barley plant (Kantoh No. 6), foliar application, active-ingredient concentration 200 ppm, application rate 50 mL, 7 days after inoculation
Source text: Equation (1): Protective value (%)=A/B×100 (1) where: • A; [(Ratio of the afflicted spotted leaf surface area in non-treated section to the total leaf surface area)−(Ratio of the afflicted spotted leaf surface area in treated section to the total leaf surface area)] • B; (Ratio of the afflicted spotted leaf surface area in non-treated section to the total leaf surface area) Criteria of Judgment: 0: Less than […] in protective value 1: 10 to 19% in protective value 2: 20 to 29% in protective value 3: 30 to 39% in protective value 4: 40 to 49% in protective value 5: 50 to 59% in protective value 6: 60 to 69% in protective value 7: 70 to 79% in protective value 8: 80 to 89% in protective value 9: 90 to 99% in protective value 10: 100% in protective value A one-leaf aged barley plant (the cultivar: Kantoh No. 6) raised as a seedling in a pot of 6 cm in diameter was subjected to foliar application with a diluted emulsion of the emulsifiable concentrate of the compound of the present invention prepared in accordance with Agrochemical Formulation Example 1, which diluted emulsion was produced by diluting the concentrate with water to the specifically determined volume. […] Seven days after the inoculation, the controlling effect was assessed according the criteria of judgment as set forth in Test Example 1.

For `O=C(Nc1ccccc1-c1ccc(Cl)cc1)c1cccnc1Cl` [Control Compound C, 2-Chloro-N-(4′-chlorobiphenyl-2-yl)-nicotinamide], the “controlling effect assessed according to the criteria of judgment” value was 4 (40 to 49% in protective value).

— patent publication US8168638B2, “Pyrazinecarboxamide derivatives and plant disease controlling agents containing the same” (Nihon Nohyaku Co., Ltd., priority 2005, dated 2012)
